What was measured:
[1] = molecular target: Recombinant human TDO (Homo sapiens, UniProt P48775); experiment: hTDO biochemical coupled assay; settings: 330 μM L-tryptophan, coupled with kynurenine formamidase
Method: (§1) Exemplary compounds of the invention were prepared, and tested to determine their effect as TDO and/or IDO inhibitors. Two different assays were employed: 1. a cell-based assay for detecting the effect of test compounds on kynurenine production in two different cancer cell types. This assay utilised cancer cells which expressed either TDO or IDO and as such was used as a means of testing compound activity at these two enzymes in a cell-based context. 2. a TDO and IDO biochemical coupled assay which utilised recombinantly produced and purified TDO and IDO enzymes in combination with the enzyme formamidase. This coupled enzyme system allowed conversion of N-formylkynurenine produced by TDO or IDO activity to kynurenine which was then quantified by fluorescence following addition of Erhlich's Reagent The protocols for these are set out below.
Recombinant human IDO or TDO was incubated in 50 mM KPO4 (pH 7.0), 0.5 mM EGTA, 0.5 mM EDTA, 0.05% Triton™ X100, 20 mM ascorbate, 10 μM methylene blue, 500 U/ml catalase, 50 μg/ml KynB (kynurenine formamidase). TDO assays were carried out in the presence of 330 μM L-tryptophan, while IDO assays had the addition of 45 μM L-tryptophan. After incubation for 17 minutes at room temperature the reactions were stopped by the addition of Erhlich's reagent and incubated at room temperature for 5 minutes before the fluorescence was read (Ex475, Em530).

[2] = molecular target: T1, TDO (A172 human glioblastoma cells) (Homo sapiens, UniProt P48775); experiment: A172 Kynurenine cell based assay; settings: 500 μM L-tryptophan, 48 hours, kynurenine by Erhlich's reagent
T1 construct: This assay utilised cancer cells which expressed either TDO or IDO; endogenous in cells; host or cells: A172 human glioblastoma cells
T1 sequence (P48775 whole entry): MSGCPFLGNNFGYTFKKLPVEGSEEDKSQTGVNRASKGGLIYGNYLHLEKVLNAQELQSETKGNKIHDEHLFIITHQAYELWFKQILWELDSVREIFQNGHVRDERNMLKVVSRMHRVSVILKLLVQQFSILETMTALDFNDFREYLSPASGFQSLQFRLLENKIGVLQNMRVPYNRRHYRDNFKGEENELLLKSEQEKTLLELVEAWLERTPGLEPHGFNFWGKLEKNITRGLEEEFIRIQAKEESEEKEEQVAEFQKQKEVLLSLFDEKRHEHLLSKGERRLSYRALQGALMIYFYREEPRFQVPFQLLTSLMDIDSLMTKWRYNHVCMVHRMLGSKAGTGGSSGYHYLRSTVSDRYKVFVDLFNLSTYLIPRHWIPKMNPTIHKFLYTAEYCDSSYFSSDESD
Method in brief: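 A172 glioblastoma cells (30,000/well) cultured at 37° C. in phenol red-free RPMI with 10% FCS, 2 mM L-glutamine and 500 μM L-tryptophan, with or without test compound. After 48 hours, kynurenine in the supernatant was read with Erhlich's reagent (5 min) as absorbance at 490 nm.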

[3] = molecular target: Recombinant human IDO (Homo sapiens, UniProt P14902); experiment: hIDO biochemical coupled assay; settings: 45 μM L-tryptophan, coupled with kynurenine formamidase
Chain of Recombinant human IDO (P14902 whole entry): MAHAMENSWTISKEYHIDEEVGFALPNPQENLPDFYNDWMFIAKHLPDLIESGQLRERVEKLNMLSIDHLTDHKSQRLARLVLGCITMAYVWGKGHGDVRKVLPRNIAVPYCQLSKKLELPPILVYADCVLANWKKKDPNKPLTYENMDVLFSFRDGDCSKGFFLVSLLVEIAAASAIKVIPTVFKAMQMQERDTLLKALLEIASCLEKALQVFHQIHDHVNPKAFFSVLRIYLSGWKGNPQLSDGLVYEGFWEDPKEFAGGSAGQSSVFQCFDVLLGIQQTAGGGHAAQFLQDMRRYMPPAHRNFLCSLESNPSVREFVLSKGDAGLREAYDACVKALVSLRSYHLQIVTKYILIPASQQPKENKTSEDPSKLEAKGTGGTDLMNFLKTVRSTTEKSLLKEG
Method: as §1
Recombinant human IDO or TDO was incubated in 50 mM KPO4 (pH 7.0), 0.5 mM EGTA, 0.5 mM EDTA, 0.05% Triton™ X100, 20 mM ascorbate, 10 μM methylene blue, 500 U/ml catalase, 50 μg/ml KynB (kynurenine formamidase).

[4] = molecular target: T2, IDO (SKOV3 human ovarian adenocarcinoma cells, IFN-γ induced) (Homo sapiens, UniProt P14902); experiment: SKOV3 Kynurenine cell based assay; settings: IDO induced by 500 ng/ml IFN-γ, 500 μM L-tryptophan, 48 hours
T2 construct: IDO expression was induced in the SKOV3 cells by the addition of 500 ng/ml IFN-γ; endogenous in cells; host or cells: SKOV3 human ovarian adenocarcinoma cells, induced with IFN-γ
T2 sequence (P14902 whole entry): as above
Method in brief: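 IFN-γ (500 ng/ml) induced IDO in SKOV3 cells, seeded at 40,000/well in phenol red-free RPMI with 10% FCS, 2 mM L-glutamine and 500 μM L-tryptophan. Cells were incubated with or without compound at 37° C for 48 h. Supernatant kynurenine was detected with Ehrlich's reagent.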

Chain of Recombinant human TDO (P48775 whole entry): as the sequence (P48775 whole entry) above

Row | Compound | hTDO biochemical assay pIC50 [1] | A172 Kynurenine cell based assay pIC50 [2] | hIDO biocehmical assay pIC50 [3] | SKOV3 Kynurenine cell based assay pIC50 [4]
1 | COc1cccc2c(C3=CCN(C(C)=O)CC3)c[nH]c12 [Compound 88] | ++ (++ = pIC50 5.00-5.99) | + (+ = pIC50 4.00-4.99) | +− (+− = pIC50 <4.00) | +− (+− = pIC50 <4.00)
2 | Cn1cc(C2=CCN(S(C)(=O)=O)CC2)c2ccccc21 [Compound 204] | + (+ = pIC50 4.00-4.99) |  |  | 
3 | COc1cccc2[nH]cc(C3=CCN(S(C)(=O)=O)CC3)c12 [Compound 197] | + (+ = pIC50 4.00-4.99) |  |  | 
4 | COc1ccc2[nH]cc(C3CCN(C(C)=O)CC3)c2c1 [Compound 199] | + (+ = pIC50 4.00-4.99) |  |  | 
5 | CS(=O)(=O)N1CC=C(c2c[nH]c3cc(Cl)c(F)cc23)CC1 [Compound 227] | + (+ = pIC50 4.00-4.99) | ++ (++ = pIC50 5.00-5.99) |  | 
6 | CS(=O)(=O)N1CC=C(c2c[nH]c3ccccc23)CC1 [Compound 209] | ++ (++ = pIC50 5.00-5.99) | ++ (++ = pIC50 5.00-5.99) |  | 
7 | NS(=O)(=O)N1CCC(c2c[nH]c3ccccc23)CC1 [Compound 218] | + (+ = pIC50 4.00-4.99) | ++ (++ = pIC50 5.00-5.99) |  | 
8 | CS(=O)(=O)N1CCC(c2c[nH]c3cc(F)c(F)cc23)CC1 [Compound 236] | + (+ = pIC50 4.00-4.99) | ++ (++ = pIC50 5.00-5.99) |  | + (+ = pIC50 4.00-4.99)
9 | CC(=O)N1CC=C(c2c[nH]c3ccccc23)CC1 [Compound 210] | ++ (++ = pIC50 5.00-5.99) | ++ (++ = pIC50 5.00-5.99) |  | 
10 | NS(=O)(=O)N1CCC(c2c[nH]c3cc(F)ccc23)CC1 [Compound 249] | + (+ = pIC50 4.00-4.99) | ++ (++ = pIC50 5.00-5.99) |  | 
11 | Cc1cccc2c(C3CCN(C(=O)c4cnn(-c5ccccc5)c4C(F)(F)F)CC3)c[nH]c12 [Compound 41] |  | + (+ = pIC50 4.00-4.99) | +− (+− = pIC50 <4.00) | + (+ = pIC50 4.00-4.99)
12 | CS(=O)(=O)N1CCCC(c2c[nH]c3cc(F)ccc23)CC1 (stereo not shown) [Compound 182] |  | ++ (++ = pIC50 5.00-5.99) | +− (+− = pIC50 <4.00) | + (+ = pIC50 4.00-4.99)
13 | CS(=O)(=O)N1CCC(c2c[nH]c3ccc(F)cc23)CC1 [Compound 159] |  | ++ (++ = pIC50 5.00-5.99) | +− (+− = pIC50 <4.00) | +− (+− = pIC50 <4.00)
14 | CC1CN(c2c[nH]c3ccccc23)CCN1S(C)(=O)=O (stereo not shown) [Compound 186] |  | ++ (++ = pIC50 5.00-5.99) | +− (+− = pIC50 <4.00) | +− (+− = pIC50 <4.00)
15 | CC(=O)N1CC=C(c2c[nH]c3cc(C)ccc23)CC1 [Compound 205] | + (+ = pIC50 4.00-4.99) | + (+ = pIC50 4.00-4.99) |  | 
16 | COc1ccc(Cl)cc1S(=O)(=O)N1CCC(c2c[nH]c3c(C)cccc23)CC1 [Compound 45] |  | + (+ = pIC50 4.00-4.99) | +− (+− = pIC50 <4.00) | + (+ = pIC50 4.00-4.99)
17 | CC(=O)N1CCC(c2c[nH]c3ccc(F)cc23)CC1 [Compound 158] |  | + (+ = pIC50 4.00-4.99) | +− (+− = pIC50 <4.00) | +− (+− = pIC50 <4.00)
18 | Cc1cccc2c(C3CCN(S(=O)(=O)c4ccccc4S(C)(=O)=O)CC3)c[nH]c12 [Compound 49] |  | ++ (++ = pIC50 5.00-5.99) | +− (+− = pIC50 <4.00) | + (+ = pIC50 4.00-4.99)
19 | CC(=O)N1CC=C(c2c[nH]c3cnccc23)CC1 [Compound 198] | + (+ = pIC50 4.00-4.99) |  |  | 
20 | CC(=O)N1CC=C(c2c[nH]c3cc(OCc4ccccc4)ccc23)CC1 [Compound 156] |  | + (+ = pIC50 4.00-4.99) | +− (+− = pIC50 <4.00) | + (+ = pIC50 4.00-4.99)

More lines, now with the values ahead:

Row | hTDO biochemical assay pIC50 [1] | A172 Kynurenine cell based assay pIC50 [2] | hIDO biocehmical assay pIC50 [3] | SKOV3 Kynurenine cell based assay pIC50 [4] | Compound
21 | + (+ = pIC50 4.00-4.99) | ++ (++ = pIC50 5.00-5.99) |  |  | O=C(C(F)F)N1CCC(c2c[nH]c3cc(F)ccc23)CC1 [Compound 260]
22 | + (+ = pIC50 4.00-4.99) | ++ (++ = pIC50 5.00-5.99) |  | + (+ = pIC50 4.00-4.99) | O=C(CO)N1CCC(c2c[nH]c3cc(F)ccc23)CC1 [Compound 269]
23 | + (+ = pIC50 4.00-4.99) | ++ (++ = pIC50 5.00-5.99) |  | + (+ = pIC50 4.00-4.99) | CCCS(=O)(=O)N1CCC(c2c[nH]c3cc(F)ccc23)CC1 [Compound 292]
24 | + (+ = pIC50 4.00-4.99) | ++ (++ = pIC50 5.00-5.99) |  |  | CNCC1CN(c2c[nH]c3ccccc23)CCN1S(C)(=O)=O (stereo not shown) [Compound 319]
25 | + (+ = pIC50 4.00-4.99) | ++ (++ = pIC50 5.00-5.99) |  |  | CNS(=O)(=O)N1CCN(c2c[nH]c3ccccc23)CC1 [Compound 295]
26 | + (+ = pIC50 4.00-4.99) | ++ (++ = pIC50 5.00-5.99) |  |  | NS(=O)(=O)N1CCN(c2c[nH]c3ccccc23)CC1 [Compound 311]
27 | + (+ = pIC50 4.00-4.99) | ++ (++ = pIC50 5.00-5.99) |  | + (+ = pIC50 4.00-4.99) | O=C(C1CC1)N1CCC(c2c[nH]c3cc(F)ccc23)CC1 [Compound 265]
28 | + (+ = pIC50 4.00-4.99) | ++ (++ = pIC50 5.00-5.99) |  | + (+ = pIC50 4.00-4.99) | CNS(=O)(=O)N1CC=C(c2c[nH]c3cc(F)ccc23)CC1 [Compound 256]
29 | + (+ = pIC50 4.00-4.99) | +++ (+++ = pIC50 ≥6.00) |  | + (+ = pIC50 4.00-4.99) | CN(C)S(=O)(=O)N1CC=C(c2c[nH]c3cc(F)ccc23)CC1 [Compound 251]
30 | + (+ = pIC50 4.00-4.99) | ++ (++ = pIC50 5.00-5.99) |  | ++ (++ = pIC50 5.00-5.99) | CCC(=O)N1CCC(c2c[nH]c3cc(F)ccc23)CC1 [Compound 263]
31 | + (+ = pIC50 4.00-4.99) | ++ (++ = pIC50 5.00-5.99) |  | + (+ = pIC50 4.00-4.99) | O=S(=O)(C1CC1)N1CCC(c2c[nH]c3cc(F)ccc23)CC1 [Compound 288]
32 | + (+ = pIC50 4.00-4.99) |  |  | + (+ = pIC50 4.00-4.99) | CC(=O)N1CCCN(c2c[nH]c3ccccc23)CC1 [Compound 308]
33 | + (+ = pIC50 4.00-4.99) | ++ (++ = pIC50 5.00-5.99) |  | + (+ = pIC50 4.00-4.99) | COCCS(=O)(=O)N1CCC(c2c[nH]c3cc(F)ccc23)CC1 [Compound 285]
34 | + (+ = pIC50 4.00-4.99) | ++ (++ = pIC50 5.00-5.99) |  |  | O=S1(=O)CCC2CN(c3c[nH]c4ccccc34)CCN21 (stereo not shown) [Compound 304]
35 | + (+ = pIC50 4.00-4.99) | ++ (++ = pIC50 5.00-5.99) |  |  | Cn1cc(S(=O)(=O)N2CCC(c3c[nH]c4cc(F)ccc34)CC2)cn1 [Compound 286]
36 | + (+ = pIC50 4.00-4.99) | ++ (++ = pIC50 5.00-5.99) |  | + (+ = pIC50 4.00-4.99) | CNS(=O)(=O)N1CCC(c2c[nH]c3cc(F)ccc23)CC1 [Compound 257]
